From patent publication US11708344B2, “Flavone derivatives for the treatment and prophylaxis of hepatitis B virus disease” (Hoffmann-La Roche Inc., priority 2018, dated 2023)
pIC50: −log10 of the molar value.

tested on: HBeAg (surrogate marker for cccDNA) in HepDES19 cells; test: Engineered HepDES19 primary screen assay (HBeAg ELISA); format: cell-based, HBV; conditions: HepDES19 cells, 5 days compound incubation, HBeAg ELISA; read-out: IC50 (HBeAg level, HepDES19 primary screen assay)
Excerpt: The assay was employed to screen for novel cccDNA inhibitors. HepDES19 is a cccDNA-producing cell line. In this cell line, HBeAg in the cell culture supernatant as surrogate marker, as HBeAg production depends on cccDNA level and activity. HepDES19 is an engineered cell line which contains a 1.1 unit length HBV genome, and pgRNA transcription from the transgene is controlled by Tetracycline (Tet). In the absence of Tet, pgRNA transcription will be induced, but HBV e antigen (HBeAg) could not be produced from this pgRNA due to very short leader sequence before the HBeAg start codon and the start codon is disrupted. Only after cccDNA is formed, the missing leader sequence and start codon mutation would be restored from the 3′-terminal redundancy of pgRNA, and then HBeAg could be synthesized. Therefore, HBeAg could be used as a surrogate marker for cccDNA (Zhou, T. et al., Antiviral Res. (2006), 72(2), 116-124; Guo, H. et al., J. Virol. (2007), 81(22), 12472-12484).
HepDES19 cells were seeded at 2×10^6 cells per T150 flask and cultured with the culture medium (Dulbecco's Modified Eagle Medium: Nutrient Mixture F-12 [DMEM-F12, Gibco Cat. 11320-82], 10% Fetal Bovine Serum [FBS, Clontech Cat. 631101], 0.1 mM Non-Essential Amino Acids Solution [NEAA, Gibco Cat. 11140-050], 50 μg/mL Penicillin-Streptomycin [PS, Invitrogen Cat. 15140-163], 500 μg/mL Geneticin [G418, Invitrogen Cat. 10131-027]) containing 3 μg/mL Tet (Sigma, Cat. 87128) for 5 days. Cells were then seeded at 4×10^6 cells per T150 in the same culture medium as described above in the absence of Tet for 8 days. Cells were then harvested and frozen at density of 2×10^6 cells per mL. For compound testing, the frozen cells were thawed and seeded into 96-well plates at a density of 6×10^4 cells per well. At 24 hours after seeding, half log serial dilutions of compounds made with Dimethyl sulfoxide (DMSO, Sigma, Cat. D2650) were further diluted with the same culture medium as described above before they were added to the cells to reach desired final compound concentrations and 1% DMSO concentration. Plates were then incubated at 37° C. for another 5 days before measurement of HBeAg level and cell viability. […] HBeAg level were measured with enzyme-linked immunosorbent assay (ELISA) kit (Shanghai Kehua Diagnostic Medical Products Co., Ltd). Cell viability was assessed using Cell Counting Kit-8 (DonJindo, Cat. CK04-20). IC50 values were derived from the dose-response curve using 4 parameter logistic curve fit method.
The compounds of the present invention were tested for their capacity to inhibit extracellular HBeAg level as described herein.

With `O=c1cc(-c2ccc(Br)cc2OCCO[C@H]2C[C@H](C(=O)O)C2)oc2c(Cl)ccc(C(F)(F)F)c12` [Example C049-B] the pIC50 was 6.99.

same assay, conditions: Hepatitis B virus, HepDES19, 120 h, read-out: IC50 (HBeAg level, HepDES19 primary screen assay), HepDES19 cells, 5 days compound incubation, HBeAg ELISA

Point of comparison: `CSc1ccc(-c2cc(=O)c3cccc(Cl)c3o2)c(OCCO[C@H]2C[C@H](C(=O)O)C2)c1` [Example C064-B, trans-3-[2-[2-(8-chloro-4-oxo-chromen-2-yl)-5-methylsulfanyl-phenoxy]ethoxy]cyclobutanecarboxylic acid], pIC50 5.53. Against it:
- O=C(O)C1CC(OCCOc2cc(Cl)ccc2-c2cc(=O)c3cccc(Cl)c3o2)C1 (stereo not shown) [Example C004, 3-[2-[5-chloro-2-(8-chloro-4-oxo-chromen-2-yl)phenoxy]ethoxy]cyclobutanecarboxylic acid] — 0.35 log units higher, 5.88
- Cc1ccc2c(=O)cc(-c3ccccc3OCCO[C@H]3C[C@@H](C(=O)O)C3)oc2c1Cl [Example C029-A, Cis-3-[2-[2-(8-chloro-7-methyl-4-oxo-chromen-2-yl)phenoxy]ethoxy]cyclobutanecarboxylic acid] — within 0.2 log units, 5.47
- Cc1ccc2c(=O)cc(-c3ccccc3OCCO[C@H]3C[C@H](C(=O)O)C3)oc2c1Cl [Example C029-B, Trans-3-[2-[2-(8-chloro-7-methyl-4-oxo-chromen-2-yl)phenoxy]ethoxy]cyclobutanecarboxylic acid] — 0.35 log units higher, 5.88
- O=c1cc(-c2ccc(Br)cc2OCCO[C@H]2C[C@@H](C(=O)O)C2)oc2c(Cl)c(F)ccc12 [Example C030-A, Cis-3-[2-[5-bromo-2-(8-chloro-7-fluoro-4-oxo-chromen-2-yl)phenoxy]ethoxy]cyclobutanecarboxylic acid] — 0.33 log units higher, 5.86
- O=c1cc(-c2ccc(Br)cc2OCCO[C@H]2C[C@H](C(=O)O)C2)oc2c(Cl)c(F)ccc12 [Example C030-B, Trans-3-[2-[5-bromo-2-(8-chloro-7-fluoro-4-oxo-chromen-2-yl)phenoxy]ethoxy]cyclobutanecarboxylic acid] — 0.64 log units lower, 4.89
- COc1cc(OCCO[C@H]2C[C@H](C(=O)O)C2)c(-c2cc(=O)c3cccc(Cl)c3o2)cc1Br [Example C040-B, Trans-3-[2-[4-bromo-2-(8-chloro-4-oxo-chromen-2-yl)-5-methoxy-phenoxy]ethoxy]cyclobutanecarboxylic acid] — 0.76 log units lower, 4.77
- COc1cc(OCCO[C@H]2C[C@H](C(=O)O)C2)c(-c2cc(=O)c3cccc(Cl)c3o2)cc1C [Example C041-B, Trans-3-[2-[2-(8-chloro-4-oxo-chromen-2-yl)-5-methoxy-4-methyl-phenoxy]ethoxy]cyclobutanecarboxylic acid] — 0.51 log units lower, 5.02
- O=c1cc(-c2ccc(Br)cc2OCCO[C@H]2C[C@@H](C(=O)O)C2)oc2c(Cl)c(C(F)(F)F)ccc12 [Example C048-A, Cis-3-[2-[5-bromo-2-[8-chloro-4-oxo-7-(trifluoromethyl)chromen-2-yl]phenoxy]ethoxy]cyclobutanecarboxylic acid] — 0.24 log units lower, 5.29
- O=c1cc(-c2cc(Br)ccc2OCCO[C@H]2C[C@H](C(=O)O)C2)oc2c(Cl)cc(F)cc12 [Example C053-B, Trans-3-[2-[4-bromo-2-(8-chloro-6-fluoro-4-oxo-chromen-2-yl)phenoxy]ethoxy]cyclobutanecarboxylic acid] — 0.28 log units lower, 5.25
- O=c1cc(-c2ccc(Br)cc2OCCCO[C@H]2C[C@H](C(=O)O)C2)oc2c(Cl)cccc12 [Example C056-B, Trans-3-[3-[5-bromo-2-(8-chloro-4-oxo-chromen-2-yl)phenoxy]propoxy]cyclobutanecarboxylic acid] — within 0.2 log units, 5.66
- O=c1cc(-c2ccccc2OCCO[C@H]2C[C@@H](C(=O)O)C2)oc2c(Cl)c(C3CC3)ccc12 [Example C058-A, Cis-3-[2-[2-(8-chloro-7-cyclopropyl-4-oxo-chromen-2-yl)phenoxy]ethoxy]cyclobutanecarboxylic acid] — 0.24 log units lower, 5.29
- O=C(O)C1CC(OCCOc2cnccc2-c2cc(=O)c3cccc(Cl)c3o2)C1 (stereo not shown) [Example C061, 3-[2-[[4-(8-chloro-4-oxo-chromen-2-yl)-3-pyridyl]oxy]ethoxy]cyclobutanecarboxylic acid] — within 0.2 log units, 5.47
- COC(=O)C1CC(OCCOc2cc(N3CCOC3=O)ccc2-c2cc(=O)c3cccc(Cl)c3o2)C1 (stereo not shown) [Example C062a, methyl 3-[2-[2-(8-chloro-4-oxo-chromen-2-yl)-5-(2-oxooxazolidin-3-yl)phenoxy]ethoxy]cyclobutanecarboxylate] — within 0.2 log units, 5.61
- O=C1CCCN1c1ccc(-c2cc(=O)c3cccc(Cl)c3o2)c(OCCO[C@H]2C[C@H](C(=O)O)C2)c1 [Example C063-B, Trans-3-[2-[2-(8-chloro-4-oxo-chromen-2-yl)-5-(2-oxopyrrolidin-1-yl)phenoxy]ethoxy]cyclobutanecarboxylic acid] — 0.70 log units lower, 4.83
- CSc1ccc(-c2cc(=O)c3cccc(Cl)c3o2)c(OCCO[C@H]2C[C@@H](C(=O)O)C2)c1 [Example C064-A, Cis-3-[2-[2-(8-chloro-4-oxo-chromen-2-yl)-5-methylsulfanyl-phenoxy]ethoxy]cyclobutanecarboxylic acid] — within 0.2 log units, 5.71
- COC(=O)[C@H]1C[C@H](OCCOc2cc(S(C)(=O)=O)ccc2-c2cc(=O)c3cccc(Cl)c3o2)C1 [Example C065-B, Trans-methyl 3-[2-[2-(8-chloro-4-oxo-chromen-2-yl)-5-methylsulfonyl-phenoxy]ethoxy]cyclobutanecarboxylate] — 0.62 log units lower, 4.91
- O=c1cc(-c2ccc(-c3nccs3)cc2OCCO[C@H]2C[C@@H](C(=O)O)C2)oc2c(Cl)cccc12 [Example C066-A, Cis-3-[2-[2-(8-chloro-4-oxo-chromen-2-yl)-5-thiazol-2-yl-phenoxy]ethoxy]cyclobutanecarboxylic acid] — 0.46 log units higher, 5.99
- O=c1cc(-c2ccc(-c3nccs3)cc2OCCO[C@H]2C[C@H](C(=O)O)C2)oc2c(Cl)cccc12 [Example C066-B, Trans-3-[2-[2-(8-chloro-4-oxo-chromen-2-yl)-5-thiazol-2-yl-phenoxy]ethoxy]cyclobutanecarboxylic acid] — 0.46 log units higher, 5.99
- O=c1cc(-c2ccc(C3CC3)cc2OCCO[C@H]2C[C@@H](C(=O)O)C2)oc2c(Cl)cccc12 [Example C069-A, Cis-3-[2-[2-(8-chloro-4-oxo-chromen-2-yl)-5-cyclopropyl-phenoxy]ethoxy]cyclobutanecarboxylic acid] — 0.24 log units lower, 5.29
- O=c1cc(-c2ccc(C3CC3)cc2OCCO[C@H]2C[C@H](C(=O)O)C2)oc2c(Cl)cccc12 [Example C069-B, Trans-3-[2-[2-(8-chloro-4-oxo-chromen-2-yl)-5-cyclopropyl-phenoxy]ethoxy]cyclobutanecarboxylic acid] — 0.36 log units higher, 5.89
- O=c1cc(-c2cc(OC(F)(F)F)c(O)cc2OCCO[C@H]2C[C@@H](C(=O)O)C2)oc2c(Cl)cccc12 [Example C090, Cis-3-[2-[2-(8-chloro-4-oxo-chromen-2-yl)-5-hydroxy-4-(trifluoromethoxy)phenoxy]ethoxy]cyclobutanecarboxylic acid] — 0.35 log units lower, 5.18
- O=C1Cc2cc(OCCO[C@H]3C[C@@H](C(=O)O)C3)c(-c3cc(=O)c4cccc(Cl)c4o3)cc2N1 [Example C091, Cis-3-[2-[6-(8-chloro-4-oxo-chromen-2-yl)-2-oxo-indolin-5-yl]oxyethoxy]cyclobutanecarboxylic acid] — 0.85 log units higher, 6.38
- CCOc1ccc(-c2cc(=O)c3ccc(C(F)(F)F)c(Cl)c3o2)c(OCCOC2CC(C(=O)O)C2)c1 (stereo not shown) [Example C097, 3-[2-[2-[8-chloro-4-oxo-7-(trifluoromethyl)chromen-2-yl]-5-ethoxy-phenoxy]ethoxy]cyclobutanecarboxylic acid] — 0.35 log units higher, 5.88
